Laboratory results published in publication PMC8734228 (Cancer discovery, 2021).

Key:
[1] = system: cells dissociated from PDX FLC1 and FLC5; assay: Primary high throughput screen, 1μM, 72 h; assay type: cell-based, human; settings: pass = survival <60%
FLC PDX cells = assay: Validation screen on cells dissociated from FLC PDX; assay type: cell-based, human; settings: for Effect on FLC PDX cells in vitro (dose response, normalized percent survival): 10nM-10μM, 72 h, FLC1-6; for Therapeutic window for FLC over PHH: FLC PDX cells compared with PHH; for Efficacy ranking in the screen: ranked by average −log10EC50 for FLC1-5 minus −log10EC50 for PHH

Structure (SMILES): COc1cc([C@@H]2c3cc4c(cc3[C@@H](O[C@@H]3O[C@@H]5CO[C@@H](C)O[C@H]5[C@H](O)[C@H]3O)[C@H]3COC(=O)[C@H]23)OCO4)cc(OC)c1O [etoposide]
- Result in primary screen (normalized percent survival) [1]: no to minimal activity

Structure (SMILES): CC(C)C[C@H](NC(=O)[C@@H](NC(=O)c1cccc(-c2ccccc2)n1)[C@@H](C)O)B(O)O [delanzomib]
- Result in primary screen (normalized percent survival) [1]: did not see any effect

Structure (SMILES): N#Cc1ccc(C(c2ccc(C#N)cc2)n2cncn2)cc1 [letrozole]
- Result in primary screen (normalized percent survival) [1]: did not pass our primary screen

Structure (SMILES): Nc1ccn([C@@H]2O[C@H](CO)[C@@H](O)C2(F)F)c(=O)n1 [gemcitabine]
- Result in primary screen (normalized percent survival) [1]: no to minimal activity

Structure (SMILES): O=C(c1ccc(F)c(F)c1Nc1ccc(I)cc1F)N1CC(O)([C@@H]2CCCCN2)C1 [cobimetinib]
- Result in primary screen (normalized percent survival) [1]: None

Structure (SMILES): COc1ccc(S(=O)(=O)Nc2cc(-c3c(O)ccc4ccccc34)c(O)c3ccccc23)cc1 [C188-9]
- Effect on FLC PDX cells in vitro (dose response, normalized percent survival) (FLC PDX cells): no effect

Structure (SMILES): CNC(=O)c1cc(Oc2ccc(NC(=O)Nc3ccc(Cl)c(C(F)(F)F)c3)c(F)c2)ccn1 [regorafenib]
- Therapeutic window for FLC over PHH (FLC PDX cells): no therapeutic window

Structure (SMILES): CCC[C@H](NC(=O)/C(C#N)=C/c1cccc(Br)n1)c1ccccc1 [degrasyn]
- Result in primary screen (normalized percent survival) [1]: did not see any effect

Structure (SMILES): Cn1cnc2c(F)c(Nc3ccc(Br)cc3Cl)c(C(=O)NOCCO)cc21 [selumetinib]
- Result in primary screen (normalized percent survival) [1]: None

Structure (SMILES): CC1(C)C=C(CN2C/C(=C\c3ccc(F)cc3)C(=O)/C(=C/c3ccc(F)cc3)C2)C(C)(C)N1O [HO3867]
- Effect on FLC PDX cells in vitro (dose response, normalized percent survival) (FLC PDX cells): no effect

Structure (SMILES): CNC(=O)c1cccc(-c2ccc3c(N4CCOC[C@@H]4C)nc(N4CCOC[C@@H]4C)nc3n2)c1 [AZD2014]
- Therapeutic window for FLC over PHH (FLC PDX cells): no therapeutic window

Structure (SMILES): COc1ccc(-c2ccc3ncc4c(c3c2)n(-c2ccc(N3CCNCC3)c(C(F)(F)F)c2)c(=O)n4C)cn1 [NVP-BGT226]
- Effect on FLC PDX cells in vitro (dose response, normalized percent survival) (FLC PDX cells): potency against all FLC PDX

Structure (SMILES): CC(=O)c1cc([N+](=O)[O-])c(Sc2cccc(Cl)c2Cl)s1 [P5091]
- Efficacy ranking in the screen (FLC PDX cells): 38

Structure (SMILES): COc1cc(Nc2ncc3c(n2)-c2ccc(Cl)cc2C(c2c(F)cccc2OC)=NC3)ccc1C(=O)O [alisertib]
- Effect on FLC PDX cells in vitro (dose response, normalized percent survival) (FLC PDX cells): no effect

Structure (SMILES): Cc1cc(OCc2nnc(SC3CCCC3)n2-c2cccnc2)ccc1-c1ccc(S(C)(=O)=O)cc1 [NMS873]
- Efficacy ranking in the screen (FLC PDX cells): 72

Structure (SMILES): CC1(C)CCC(c2ccc(Cl)cc2)=C(CN2CCN(c3ccc(C(=O)NS(=O)(=O)c4ccc(N[C@H](CCN5CCOCC5)CSc5ccccc5)c(S(=O)(=O)C(F)(F)F)c4)cc3)CC2)C1 [navitoclax]
- Efficacy ranking in the screen (FLC PDX cells): fifth
- Efficacy ranking in the screen (FLC PDX cells; listed as Navitoclax): 5

Structure (SMILES): COc1ccc(-c2nc(N3CCOCC3)c3sc(CN(C)c4ncc(C(=O)NO)cn4)cc3n2)cn1 [fimepinostat]
- Effect on FLC PDX cells in vitro (dose response, normalized percent survival) (FLC PDX cells): affected FLC1,3,4
- Efficacy ranking in the screen (FLC PDX cells): 22

Structure (SMILES): CCc1c2c(nc3ccc(OC(=O)N4CCC(N5CCCCC5)CC4)cc13)-c1cc3c(c(=O)n1C2)COC(=O)[C@]3(O)CC [irinotecan]
- Effect on FLC PDX cells in vitro (dose response, normalized percent survival) (FLC PDX cells): no effect

Structure (SMILES): CNC(=O)c1cc(Oc2ccc(NC(=O)Nc3ccc(Cl)c(C(F)(F)F)c3)cc2)ccn1 [Sorafenib]
- Therapeutic window for FLC over PHH (FLC PDX cells): no therapeutic window

Structure (SMILES): C#Cc1cccc(Nc2ncnc3cc(OCCOC)c(OCCOC)cc23)c1 [Erlotinib]
- Effect on FLC PDX cells in vitro (dose response, normalized percent survival) (FLC PDX cells): no effect

Structure (SMILES): COc1cccc2cc(-c3nc([C@H]4CC[C@H](C(=O)O)CC4)n4ncnc(N)c34)[nH]c12 [OSI-027]
- Therapeutic window for FLC over PHH (FLC PDX cells): no therapeutic window

Structure (SMILES): CNC(=O)Nc1ccc(-c2nc(N3CC4CCC(C3)O4)c3cnn(C4CCC5(CC4)OCCO5)c3n2)cc1 [WYE-125132]
- Therapeutic window for FLC over PHH (FLC PDX cells): no therapeutic window

Structure (SMILES): Cc1c(CN2CCN(C(=O)[C@H](C)O)CC2)sc2c(N3CCOCC3)nc(-c3cnc(N)nc3)nc12 [GDC0980]
- Therapeutic window for FLC over PHH (FLC PDX cells): no therapeutic window

Structure (SMILES): CN(NC(=O)CC(=O)NN(C)C(=S)c1ccccc1)C(=S)c1ccccc1 [Elesclomol]
- Efficacy ranking in the screen (FLC PDX cells): sixth
